Data: PMC3810934 (Emerging Infectious Diseases, 2013)
Read-outs that look alike come from different tables or passages of the source.

How the values were obtained:
[1] = biological target: A/Anhui/1/2013 (E2/S1) virus isolate neuraminidase (Influenza A virus (A/Anhui/1/2013(H7N9)), UniProt A0A024E3Q2); format: biochemical; conditions: pH 5.1
[2] = biological target: A/Anhui/1/2013 (E2/S1) virus isolate neuraminidase (Influenza A virus (A/Anhui/1/2013(H7N9)), UniProt A0A024E3Q2); format: biochemical; conditions: pH 6.5
[3] = biological target: T1, Oseltamivir-sensitive A/Washington/01/2007 neuraminidase (Influenza A virus (H3N2), UniProt A7UPN3); format: biochemical; conditions: pH 6.5
[4] = biological target: T2, Oseltamivir-sensitive A/California/12/2012 neuraminidase (Influenza A virus (H1N1pdm09), UniProt R4SI91); format: biochemical; conditions: pH 6.5
[5] = biological target: T2, Oseltamivir-sensitive A/California/12/2012 neuraminidase; format: biochemical; conditions: pH 5.1
[6] = biological target: T1, Oseltamivir-sensitive A/Washington/01/2007 neuraminidase; test: biochemical
A/Shanghai/1/2013 virus = conditions: cited from earlier work

| Structure (SMILES) | IC50 [1] | IC50 [2] | IC50 [3] | IC50 ([1]; read-out: IC50) | IC50 ([2]; read-out: IC50) | IC50 [4] | IC50 [5] | IC50 ([6]; pH 5.1, read-out: IC50) | Susceptibility on the basis of NI assay data (A/Shanghai/1/2013 virus) | IC50 [6] |
| --- | --- | --- | --- | --- | --- | --- | --- | --- | --- | --- |
| CO[C@@H]([C@@H]1OC(C(=O)O)=C[C@H](NC(=N)N)[C@H]1NC(C)=O)[C@H](O)CO [Laninamivir, laninamivir] | 1290 pM | 460 pM |  |  |  |  |  |  |  |  |
| CCC(CC)[C@H](NC(C)=O)[C@@H]1[C@H](O)[C@@H](C(=O)O)C[C@H]1N=C(N)N [Peramivir, peramivir] |  |  | 80 pM | 120 pM | 60 pM | 60 pM | 70 pM | 100 pM |  |  |
| CC(=O)N[C@H]1[C@H]([C@H](O)[C@H](O)CO)OC(C(=O)O)=C[C@@H]1N=C(N)N [Zanamivir, zanamivir] | 1000 pM | 330 pM |  |  |  |  |  |  | susceptible | 450 pM |
